In brackets after ≈: the same amount, converted by molar mass.
Key:
[1] = Solubility measurement in pH buffers; type: physicochemical
[2] = Kinetic solubility measurement in bio-relevant media; type: physicochemical; details: FeSSIF
OPRD1 = OPRD1 (Homo sapiens, UniProt P41143); assay: Off target selectivity assay, OPRD1; type: cell-based; details: dose response, concentrations up to 10 μM; read-out: IC50 or EC50 on OPRD1
Description: (§1) Final assay vehicle concentration was 1%.
(§2) For Gi coupled GPCRs, EC80 forskolin was included.
(§3) DMSO concentration for all readouts is ≤0.2%.
(§4) Probenicid was prepared fresh. Cells were loaded with dye prior to testing.

OATP1B3 = molecular target: T1, OATP1B3 (Homo sapiens, UniProt Q9NPD5); assay: Drug transporter fluorometric inhibition, OATP1B3; type: in vitro ADME
T1 sequence (Q9NPD5 1-702): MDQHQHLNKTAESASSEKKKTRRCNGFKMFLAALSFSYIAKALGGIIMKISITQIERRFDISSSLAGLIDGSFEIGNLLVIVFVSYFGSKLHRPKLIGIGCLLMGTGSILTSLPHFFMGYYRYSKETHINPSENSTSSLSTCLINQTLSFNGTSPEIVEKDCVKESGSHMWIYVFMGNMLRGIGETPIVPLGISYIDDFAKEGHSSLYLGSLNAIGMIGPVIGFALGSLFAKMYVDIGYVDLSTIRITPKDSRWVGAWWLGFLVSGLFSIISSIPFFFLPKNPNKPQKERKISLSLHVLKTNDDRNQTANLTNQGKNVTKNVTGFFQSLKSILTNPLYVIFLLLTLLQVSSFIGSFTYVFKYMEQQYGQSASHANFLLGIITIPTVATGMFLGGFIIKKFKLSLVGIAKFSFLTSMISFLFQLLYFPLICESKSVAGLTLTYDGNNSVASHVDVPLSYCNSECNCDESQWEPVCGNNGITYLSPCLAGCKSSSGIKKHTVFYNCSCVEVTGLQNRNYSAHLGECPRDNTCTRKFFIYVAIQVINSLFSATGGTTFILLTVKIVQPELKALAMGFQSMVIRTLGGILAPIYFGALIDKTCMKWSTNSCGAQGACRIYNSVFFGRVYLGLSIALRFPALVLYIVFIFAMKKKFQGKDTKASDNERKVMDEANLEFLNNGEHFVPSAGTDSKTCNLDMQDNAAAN
Description: Drug transporter (fluorometric inhibition)
The percent of control was calculated using the following equation. The percent of inhibition was calculated by subtracting the percent of control from 100. The IC50 value (concentration causing a half-maximal inhibition of the control value) was determined by non-linear regression analysis of the concentration-response curve using the Hill equation.
Compound is the individual reading in the presence of the test compound. T1 is the mean reading in the absence of the test compound. Background (for P-gp and BCRP) is the mean reading in the presence of the highest effective concentration of the reference inhibitor. Background (for OATP1B1, OATP1B3, OAT1, OAT3, and OCT2) is the mean reading in the absence of both the test compound and the substrate.

HTR1A = molecular target: T2, HTR1A (Homo sapiens, UniProt P08908); assay: Off target selectivity assay, HTR1A; type: cell-based; details: dose response, concentrations up to 10 μM; read-out: IC50 or EC50 on HTR1A
T2 sequence (P08908 1-422): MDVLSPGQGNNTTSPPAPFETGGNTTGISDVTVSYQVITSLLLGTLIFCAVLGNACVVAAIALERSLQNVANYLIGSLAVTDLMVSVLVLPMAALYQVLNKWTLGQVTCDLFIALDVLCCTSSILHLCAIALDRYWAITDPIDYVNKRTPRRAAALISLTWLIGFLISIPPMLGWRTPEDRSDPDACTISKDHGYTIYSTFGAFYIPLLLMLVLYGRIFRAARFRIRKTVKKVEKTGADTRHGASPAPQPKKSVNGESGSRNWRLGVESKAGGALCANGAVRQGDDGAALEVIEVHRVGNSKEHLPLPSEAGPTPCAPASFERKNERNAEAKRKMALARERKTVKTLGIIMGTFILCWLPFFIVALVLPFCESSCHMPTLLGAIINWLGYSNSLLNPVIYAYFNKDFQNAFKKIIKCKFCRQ
Description: as §1, §2, §3, §4

Sequence of OPRD1 (P41143 whole entry): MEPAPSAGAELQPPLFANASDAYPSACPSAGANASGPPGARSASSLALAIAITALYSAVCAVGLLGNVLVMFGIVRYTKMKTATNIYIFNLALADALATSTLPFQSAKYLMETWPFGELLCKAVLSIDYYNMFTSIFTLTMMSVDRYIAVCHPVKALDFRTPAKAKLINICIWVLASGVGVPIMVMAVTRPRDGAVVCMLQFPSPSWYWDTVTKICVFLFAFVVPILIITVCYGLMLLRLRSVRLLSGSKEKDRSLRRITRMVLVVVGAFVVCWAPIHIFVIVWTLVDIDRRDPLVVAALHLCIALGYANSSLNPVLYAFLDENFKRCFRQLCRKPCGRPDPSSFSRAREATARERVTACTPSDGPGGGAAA

Compound	solubility at 24 h ([1]; pH 2, aqueous buffer, thermodynamic from solid, all pH buffers 2.0 to 8.0, 37° C., 24 hrs, read-out: solubility at pH 2.0-8.0) [µg/mL]	form change in all the pH buffers ([1]; pH 2.0 to 8.0, after 24 hrs)	form change in the three bio-relevant media ([2]; SGF, FaSSIF, after 1, 2, 4 and 24 hrs)	solubility ([2]; pH 5, thermodynamic from solid, 37° C., read-out: highest solubility, observed in FeSSIF) [µg/mL]	IC50 (OPRD1) [nM]	inhibition at 10 µM (OATP1B3) [%]	IC50 (HTR1A) [nM]
CC(=O)c1ccc2c(c1)[C@@H]1C=CC[C@@H]1[C@H](c1cc3c(cc1Br)OCO3)N2 (single isomer, unassigned) [SRR G-1]	< 0.72	No form change was observed	No form change was observed	~37 (≈ 89.7 µM)	870		
CC(=O)c1ccc2c(c1)[C@H]1C=CC[C@H]1[C@@H](c1cc3c(cc1Br)OCO3)N2 [RSS G-1, 1-((3aR,4S,9bS)-4-(6-bromobenzo[d][1,3]dioxol-5-yl)-3a,4,5,9b-tetrahydro-3H-cyclopenta[c]quinolin-8-yl)ethan-1-one]						74.3	2100
